Laboratory results published in US20070203244A1, “INHIBITORS OF MEMBRANE TYPE-1 MATRIX METALLOPROTEINASE FOR THE TREATMENT OF INSULIN-DEPENDENT DIABETES MELLITUS” (priority 2006, published 2007).

Legend:
NOD mice = assay: Adoptively transferred diabetes in NOD mice (IS-CD8+ cells); assay type: in vivo
Experimental: IS-CD8^+ cells were labeled with DiI and then injected in NOD mice. In 24 h, the labeled cells with their intra-islet location were counted in the cryostat sections of the entire pancreas. […] IS-CD8^+ cells were injected in NOD mice. […] PBS containing […] DMSO was used as a vehicle control. The onset of diabetes was monitored daily by measuring urine glucose levels with the Diastix reagent strips. Mice with urine glucose levels of ≧2000 mg/dl for 3 consecutive days were considered diabetic. * and **, p=0.02 and p=0.015 by Fisher's test, respectively.
Mice were monitored for 21 days. […] The onset of diabetes was identified by assessing urine glucose levels with Diastix® strips (Bayer). Mice with urine glucose levels of >2000 mg/dl for 3 consecutive days were considered diabetic. […] The level of glucose in the urine closely follows that in the blood (Traisman, H. S., and Greenwood, R. D. (1973)). The measurement of glucose in urine is a widely accepted method to follow the development of diabetes in NOD mice (Pomerleau, D. P., et al. (2005)).

MT1-MMP = target: T1, MT1-MMP (Mus musculus, UniProt P53690); assay: MT1-MMP-dependent MMP-2 activation in adherent IS-CD8+ cells, gelatin zymography; assay type: cell-based, NOD mouse
T1 construct: Endogenous MT1-MMP is latent in non-adherent IS-CD8^+ cells; endogenous in cells; host or cells: IS-CD8+ T cells (TGNFC8 clone, NOD mouse), adherent to gelatin
Experimental: MT1-MMP-dependent MMP-2 Activation and Gelatin Zymography—IS-CD8^+ cells (1×10^6) were either allowed to adhere for 4 h in serum-free unsupplemented Click's medium to plastic coated with 2% gelatin or kept in solution. Under these experimental conditions, the vast majority of cells became attached to gelatin. In 4 h, media samples (30 μl each) were withdrawn and analyzed by gelatin zymography (Deryugina, E. I., et al. (2001)) to identify the proteolytic activity and the activation status of MMP-2 naturally synthesized by IS-CD8^+ cells. Where indicated, cells were supplemented with external purified pro-MMP-2 (20 ng). Pro-MMP-2 was isolated from a conditioned medium of p2AHT2A72 cells derived from an HT1080 fibrosarcoma cell line sequentially transfected with the E1A and MMP-2 cDNAs (Strongin, A. Y., et al. (1995)).
MT1-MMP-dependent MMP-2 activation and gelatin zymography—IS-CD8^+ cells (1×10^6) were either allowed to adhere for 4 h in serum-free unsupplemented Click's medium to the plastic coated with 2% gelatin or kept in solution. In 18 h, media samples (30 μl each) were withdrawn and analyzed by gelatin zymography (Deryugina, E. I., et al. (2001)) to identify the proteolytic activity and the activation status of MMP-2 naturally synthesized by IS-CD8^+ cells. […] Pro-MMP-2 was isolated from a conditioned medium of p2AHT2A72 cells derived from an HT1080 fibrosarcoma cell line sequentially transfected with the E1A and MMP-2 cDNAs (Strongin, A. Y., et al. (1995)).

[1] = tested on: CD44 shedding in IS-CD8+ cells; assay: CD44 shedding in adherent IS-CD8+ cells, Western blotting; assay type: cell-based, NOD mouse
Experimental: Western Blotting—IS-CD8^+ cells were surface biotinylated for 1 h at 4° C. with 0.1 mg/ml sulfo-NHS-LC-biotin (Pierce, Rockford, Ill.). Following washes to remove biotin, cells were co-incubated for 2 h with MT1-MMP-CAT in serum-free, unsupplemented Click's medium. The cells were then lysed with 50 mM N-octyl-β-D-glucopyranoside in phosphate-buffered saline supplemented with 1 mM CaCl2, 1 mM MgCl2, and protease inhibitor mixture containing phenylmethylsulfonyl fluoride (1 mM) and aprotinin, pepstatin, and leupeptin (1 μg/ml each). Biotin-labeled CD44 was captured from the cell lysate and from the medium aliquots on streptavidin-agarose beads. The captured samples were examined by Western blotting with the CD44 (clone IM7.8.1) antibody to determine the released, soluble, CD44 ectodomain in the medium samples and the residual, membrane-anchored, cellular CD44 in the cell lysates.
Western blotting—IS-CD8^+ cells were surface biotinylated for 1 hr at 4° C. with 0.1 mg/ml of sulfo-NES-LC-biotin (Pierce). Following washes to remove biotin, the labeled cells were allowed to adhere in serum-free medium to plastic coated with 2% type I collagen/gelatin for 4 h or were kept in suspension. Under these experimental conditions, the vast majority of the cells became attached to gelatin. […] The cells were then lysed with 50 mM N-octyl-β-D-glucopyranoside in PBS supplemented with 1 mM CaCl2, 1 mM MgCl2, and protease inhibitor cocktail containing phenylmethylsulfonyl fluoride (1 mM) and aprotinin, pepstatin, and leupeptin (1 μg/ml each). Biotin-labeled CD44 was captured from the cell lysate and from the medium aliquots on streptavidine-Agarose beads. The captured samples were examined by Western blotting with the CD44 (clone IM7.8.1) antibody to determine the released, soluble, CD44 ectodomain in the medium samples and the residual, membrane-anchored, cellular CD44 in the cell lysates.

CC1(C)SCCN(S(=O)(=O)c2ccc(Oc3ccncc3)cc2)[C@H]1C(=O)NO [AG3340]
delay of the onset of diabetes compared with the control (NOD mice; Example 1: cells co-incubated with AG3340, 1 mg/kg i.p. on days 0, 2, 4, 6, 8, 10): ~2 fold
delay of the onset of diabetes compared to the control (NOD mice; Example 3: 1 mg/kg i.p. 30 min prior to cells, then every other day): approximately 2 fold
activation of MMP-2 in adherent cells (MT1-MMP; Example 2: AG3340 50 μM, TIMP-1 and TIMP-2 100 ng/ml, 18 h): fully blocked
activation of MMP-2 in adherent cells (MT1-MMP; Example 3: inhibitors added for 18 h): fully blocked
shedding of CD44 in adherent cells ([1]; Example 2: AG3340 50 μM, TIMP-1 and TIMP-2 100 ng/ml): fully blocked
shedding of CD44 in adherent cells ([1]; Example 3): fully blocked
